Results on two compounds are retold here after patent publication US10751311B2, “Compositions and methods of using modified release solabegron for lower urinary tract symptoms” (VELICEPT THERAPEUTICS, INC., priority 2014, dated 2020).

The term EC90 denotes the concentration needed for an effect of 90%. Lower therefore signals an effect from little substance.

For series [1], the target named is T1, beta-3 adrenoceptor (Rattus norvegicus, UniProt P26255).
T1 construct: The bladder longitudinal smooth muscle, with the urothelium still attached were mounted in 25 ml organ baths; from tissue; host or cells: isolated bladder longitudinal smooth muscle strips (urothelium attached) from male CD rats
Put plainly: Determination of EC90 concentration to inhibit EFS-induced contraction in rat isolated bladder (pilot CCRC). The settings on record: PSS with 1 μM prazosin and 30 nM ICI118551, EFS 15 Hz. In kind it is cell-based. How it is done: Macroscopically normal bladders obtained from Male CD rats (220-250 g) were used. […] Each bladder was cleaned free of surrounding connective tissue and halved longitudinally. The bladder longitudinal smooth muscle, with the urothelium still attached were mounted in 25 ml organ baths containing physiological saline solution (PSS) (composition: 119.0 mM NaCl, 4.7 mM KCl, 1.2 mM MgSO4, 24.9 mM NaHCO3, 1.2 mM KH2PO4, 2.5 mM CaCl2 and 11.1 mM glucose) supplemented with 1 μM prazosin (α1-adrenoceptor antagonist) and 30 nM ICI118551 (β2-adrenoceptor antagonist), aerated with 95% O2/5% CO2 gas mix, warmed and maintained at approximately 37° C. throughout the experiment. Changes in force production were recorded using transducers. […]
In initial experiments the parameters for the EFS were assessed by performing a frequency curve to determine a frequency that would give a response that was approximately 80% of the response seen to 80 mM KCl. Optimal EFS parameters were determined to be: 30 Volts, square pulse of 0.1 ms, train of 4 seconds every 120 seconds, 15 Hz. […]
Pilot studies to determine EC90 concentrations of the test compounds were performed. […] From the data obtained in these experiments, EC90 concentrations of the test compounds were determined for use in subsequent experiments. […]

The target in series [2] is T1, beta-3 adrenoceptor. Nature of the series: Receptor desensitization: CCRC after incubation with the EC90 concentration and PSS washout, EFS-stimulated rat bladder strips. The class given is cell-based. The protocol:
Macroscopically normal bladders obtained from Male CD rats (220-250 g) were used. […] Each bladder was cleaned free of surrounding connective tissue and halved longitudinally. The bladder longitudinal smooth muscle, with the urothelium still attached were mounted in 25 ml organ baths containing physiological saline solution (PSS) (composition: 119.0 mM NaCl, 4.7 mM KCl, 1.2 mM MgSO4, 24.9 mM NaHCO3, 1.2 mM KH2PO4, 2.5 mM CaCl2 and 11.1 mM glucose) supplemented with 1 μM prazosin (α1-adrenoceptor antagonist) and 30 nM ICI118551 (β2-adrenoceptor antagonist), aerated with 95% O2/5% CO2 gas mix, warmed and maintained at approximately 37° C. throughout the experiment. Changes in force production were recorded using transducers. After mounting, the bladder halves were allowed to equilibrate for at least 30 min before they were set to a stable tension of approximately 1.0 g. The tissue was then allowed to equilibrate over at least a 60 min period with washes every 15 min.
In initial experiments the parameters for the EFS were assessed by performing a frequency curve to determine a frequency that would give a response that was approximately 80% of the response seen to 80 mM KCl. Optimal EFS parameters were determined to be: 30 Volts, square pulse of 0.1 ms, train of 4 seconds every 120 seconds, 15 Hz. This frequency was then used to stimulate the tissue for all subsequent experiments. The viability of bladder strips was tested by stimulating the tissue with EFS for minimum of ten minutes.
The bladder muscle strips were incubated with the EC90 determined for each test compound in the pilot studies, for a period of 1 or 3 hr. Following compound incubation, the tissues were washed with PSS for a period of 1, 3 or 6 hr, with washes approximately every 15 min, to remove the drug. At the end of the final wash period the tissues were stimulated with EFS, and left to equilibrate for at least 30 min. A CCRC was then performed in each tissue. Tissue responses were calculated as the mean (SEM) and expressed as percentage of EFS induced tone.
Tissues were incubated with the EC90 concentration of the test compounds for one hr followed by one hr, three hr or six hr of washing with PSS. […] This EFS-induced potentiation of bladder contraction from baseline was not observed with solabegron.
In the next series of experiments, tissues were incubated with the EC90 concentration of the test compounds for three hr followed by either one hr, three hr or six hr of washing with PSS.

The nature of series [3]: Absorption of solabegron in regions of the GI tract. In kind it is in vivo. The settings on record: solabegron and pharmaceutical salts thereof. An excerpt:
(§1) For example, some compounds are differentially absorbed in different regions of the GI tract. […] Under these improved conditions, a second release of solabegron and absorption will result. Additionally, methods for the release of solabegron in the distal GI tract based on pH are presented herein.

The conditions of series [4]: women with moderate to severe OAB; cited from earlier work.
Series [5] is described as follows: pH-dependent solubility of solabegron. The class given is physicochemical.
From the text: as §1

The mark [6] stands for this setting: three hr incubation with EC90 concentration, one hr of washing.

T1 sequence (P26255 whole entry): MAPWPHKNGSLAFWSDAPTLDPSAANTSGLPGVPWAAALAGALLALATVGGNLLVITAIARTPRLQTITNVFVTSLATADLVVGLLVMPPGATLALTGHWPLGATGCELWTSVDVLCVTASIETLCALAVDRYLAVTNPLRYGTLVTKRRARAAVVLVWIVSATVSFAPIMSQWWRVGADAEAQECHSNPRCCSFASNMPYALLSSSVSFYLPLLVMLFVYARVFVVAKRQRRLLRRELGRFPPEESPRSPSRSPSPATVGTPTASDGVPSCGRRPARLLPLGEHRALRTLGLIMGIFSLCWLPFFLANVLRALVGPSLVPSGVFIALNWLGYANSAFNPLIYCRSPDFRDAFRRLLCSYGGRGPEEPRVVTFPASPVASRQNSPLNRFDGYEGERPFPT

`C[C@H](Cc1ccc2c(c1)OC(C(=O)[O-])(C(=O)[O-])O2)NC[C@H](O)c1cccc(Cl)c1.[Na+].[Na+]` [CL-316,243, reference compound] showed a 90% effect concentration (EC90) on beta-3 adrenoceptor [1] of 42 nM. In addition, the “Response to agonist (CCRC, reduction of EFS-induced tone) versus vehicle-incubated tissue” value on beta-3 adrenoceptor [2] (setting [6]) was “significantly attenuated”.

As for `O=C(O)c1cccc(-c2cccc(NCCNC[C@H](O)c3cccc(Cl)c3)c2)c1` [solabegron, 3′-[(2-{[(2R)-2-(3-chlorophenyl)-2-hydroxyethyl]amino}ethyl)amino]biphenyl-3-carboxylic acid], on beta-3 adrenoceptor [1], the EC90 was found to be 1000 nM. In addition, the “Absorption in the GI tract” value in series [3] is “optimum absorption in the proximal GI tract”. Besides, in series [4], the “Effect on symptoms of overactive bladder” value is on record as “significantly reduce the symptoms of overactive bladder”. In addition, the “Safety, tolerability, adverse events compared to placebo” value in series [4] is “safe, well-tolerated, and does not demonstrate significant differences in adverse events as compared to placebo”. The “Response to agonist (CCRC, reduction of EFS-induced tone) versus vehicle-incubated tissue” value at beta-3 adrenoceptor [2] (one hr incubation with EC90 concentration, one hr of washing) is listed as “significantly attenuated”; on beta-3 adrenoceptor [2] (one hr incubation with EC90 concentration, three hr of washing, higher concentrations), “significantly attenuated”; on beta-3 adrenoceptor [2] (setting [6]), “significantly attenuated”; on beta-3 adrenoceptor [2] (three hr incubation with EC90 concentration, three hr of washing, highest concentrations), “significantly attenuated”. Also, the Solubility result in series [5] is recorded as “pH-dependent solubility”.
